{"source": "paper PMC3799614", "about": "“Combinatorial Engineering of Dextransucrase Specificity” (PLoS ONE, 2013)", "test_system": "T1, DSR-S vardel Δ4N (Thio-DSR-S vardel Δ4N-His)", "T1 construct": "gene dsrS; truncated form (variable region and part of C-terminal region deleted)", "test": "initial velocity, released fructose by HPLC", "assay_type": "biochemical, Leuconostoc mesenteroides", "settings": "50 mM sodium acetate pH 5.2, 0.05 g/L CaCl2, 25 °C; 10-600 mM sucrose; fit with substrate inhibition", "description": "initial velocity, released fructose by HPLC on DSR-S vardel Δ4N (Thio-DSR-S vardel Δ4N-His)"}
{"molecule": "OC[C@H]1O[C@@](CO)(O[C@H]2O[C@H](CO)[C@@H](O)[C@H](O)[C@H]2O)[C@@H](O)[C@@H]1O", "note": "[sucrose]", "values": [{"measurement": "Km", "result": 115.8, "unit": "mM"}]}
